Calls of active or inactive are those of the source. The calls are words filed in the database; no cut-off is given here.
How the values were obtained:
[1] = target: TGF-beta receptor type-2 (Homo sapiens) (UniProt P37173); experiment: Inhibition of recombinant human TGFBR2 (188 to end residues) at 10 uM using myelin basic protein as substrate measured after 120 mins in presence of [gamm33P]ATP by scintillation counting method relative to control
[2] = CoA reactivity in PBS assessed as CoA adduct formation at 1 mM after 8 hrs by UPLC-MS analysis
[3] = organism: Homo sapiens; experiment: Inhibition of recombinant human EphB2 A848S/K918E mutant (560 to end residues) using poly (Glu, Tyr) 4:1 as substrate at 10 uM after 40 mins in presence of [gamma-33P]-ATP by scintillation counting relative to control
[4] = target: N-lysine methyltransferase SMYD2 (Homo sapiens) (UniProt Q9NRG4); experiment: Inhibition of human SMYD2 at 10 uM relative to control
N-lysine methyltransferase SMYD2 (Homo sapiens), sequence (Q9NRG4 whole entry): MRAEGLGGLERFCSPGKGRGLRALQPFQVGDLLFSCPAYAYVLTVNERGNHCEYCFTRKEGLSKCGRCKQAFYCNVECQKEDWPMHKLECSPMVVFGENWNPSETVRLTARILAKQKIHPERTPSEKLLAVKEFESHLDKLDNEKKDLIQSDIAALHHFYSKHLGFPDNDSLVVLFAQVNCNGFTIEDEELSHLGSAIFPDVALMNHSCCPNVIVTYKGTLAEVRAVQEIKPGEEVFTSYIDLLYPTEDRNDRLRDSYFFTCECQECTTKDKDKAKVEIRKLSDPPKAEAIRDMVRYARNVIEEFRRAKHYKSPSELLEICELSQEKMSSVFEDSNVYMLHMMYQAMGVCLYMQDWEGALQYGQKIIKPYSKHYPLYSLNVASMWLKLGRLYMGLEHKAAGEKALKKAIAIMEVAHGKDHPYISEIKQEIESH

[5] = target: Serine/threonine-protein kinase 17B (Homo sapiens) (UniProt O94768); experiment: Inhibition of full-length recombinant human DRAK2 at 10 uM using KKRPQRRYSNVF as substrate after 120 mins by in presence of [gamma33P]ATP by scintillation counting method relative to control
Serine/threonine-protein kinase 17B (Homo sapiens), sequence (O94768 whole entry): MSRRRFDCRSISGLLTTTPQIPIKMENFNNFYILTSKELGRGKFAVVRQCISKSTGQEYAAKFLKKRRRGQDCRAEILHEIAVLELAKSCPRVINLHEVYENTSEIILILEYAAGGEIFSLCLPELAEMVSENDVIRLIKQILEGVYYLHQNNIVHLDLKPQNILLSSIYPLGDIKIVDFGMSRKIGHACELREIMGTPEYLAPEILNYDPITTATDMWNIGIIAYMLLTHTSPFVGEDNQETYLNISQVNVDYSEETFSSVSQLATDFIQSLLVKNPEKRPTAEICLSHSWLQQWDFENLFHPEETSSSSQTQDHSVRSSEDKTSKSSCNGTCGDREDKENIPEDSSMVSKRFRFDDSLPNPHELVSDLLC

[6] = target: Mitogen-activated protein kinase 14 (Homo sapiens) (UniProt Q16539); experiment: Inhibition of recombinant full-length human SAPK2a at 10 uM using myelin basic protein as substrate measured after 40 mins in presence of [gamma33P]ATP by scintillation counting method relative to control
[7] = target: Activated CDC42 kinase 1 (Homo sapiens) (UniProt Q07912); experiment: Inhibition of human ACK1 (1 to 389 residues) at 10 uM using EFPIYDFLPAKKK as substrate after 40 mins in presence of [gamma33P]ATP by scintillation counting method relative to control
[8] = target: Ephrin type-B receptor 4 (Homo sapiens) (UniProt P54760); experiment: Inhibition of human EphB4 (561 to end residues) using poly (Glu, Tyr) 4:1 as substrate at 10 uM after 40 mins in presence of [gamma-33P]-ATP by scintillation counting relative to control
Ephrin type-B receptor 4 (Homo sapiens), sequence (P54760 whole entry, the tested form may be a part): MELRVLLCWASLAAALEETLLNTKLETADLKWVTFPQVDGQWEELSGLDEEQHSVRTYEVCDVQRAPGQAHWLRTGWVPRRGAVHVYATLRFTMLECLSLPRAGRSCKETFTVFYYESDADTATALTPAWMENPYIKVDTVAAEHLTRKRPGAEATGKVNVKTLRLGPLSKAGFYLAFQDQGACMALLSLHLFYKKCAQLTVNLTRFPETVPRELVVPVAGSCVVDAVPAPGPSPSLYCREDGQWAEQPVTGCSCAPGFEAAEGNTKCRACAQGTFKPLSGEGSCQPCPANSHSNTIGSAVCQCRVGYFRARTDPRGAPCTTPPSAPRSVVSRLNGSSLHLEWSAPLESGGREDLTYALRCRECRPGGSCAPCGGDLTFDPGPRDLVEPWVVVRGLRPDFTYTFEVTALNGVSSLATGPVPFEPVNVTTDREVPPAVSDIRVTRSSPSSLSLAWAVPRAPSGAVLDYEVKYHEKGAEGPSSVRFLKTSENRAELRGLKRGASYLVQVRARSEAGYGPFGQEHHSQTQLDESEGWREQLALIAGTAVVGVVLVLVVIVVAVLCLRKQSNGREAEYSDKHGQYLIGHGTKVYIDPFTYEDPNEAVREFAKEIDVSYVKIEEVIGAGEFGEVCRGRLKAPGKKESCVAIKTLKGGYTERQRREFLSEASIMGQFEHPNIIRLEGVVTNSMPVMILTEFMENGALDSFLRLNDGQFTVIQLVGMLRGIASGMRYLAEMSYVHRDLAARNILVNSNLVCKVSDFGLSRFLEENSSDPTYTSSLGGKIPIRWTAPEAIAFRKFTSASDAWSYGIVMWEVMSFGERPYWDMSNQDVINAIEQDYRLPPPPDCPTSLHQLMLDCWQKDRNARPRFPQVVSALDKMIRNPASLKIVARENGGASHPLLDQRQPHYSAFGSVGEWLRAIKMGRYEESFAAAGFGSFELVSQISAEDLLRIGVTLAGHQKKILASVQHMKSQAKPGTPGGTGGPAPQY

[9] = target: Tyrosine-protein kinase HCK (Homo sapiens) (UniProt P08631); experiment: Inhibition of recombinant human Hck activated (230 to 497 residues) at 10 uM using GGMEDIYFEFMGGKKK as substrate after 40 mins in presence of [gamma33P]ATP by scintillation counting method relative to control
Tyrosine-protein kinase HCK (Homo sapiens), sequence (P08631 2-526 limits assumed): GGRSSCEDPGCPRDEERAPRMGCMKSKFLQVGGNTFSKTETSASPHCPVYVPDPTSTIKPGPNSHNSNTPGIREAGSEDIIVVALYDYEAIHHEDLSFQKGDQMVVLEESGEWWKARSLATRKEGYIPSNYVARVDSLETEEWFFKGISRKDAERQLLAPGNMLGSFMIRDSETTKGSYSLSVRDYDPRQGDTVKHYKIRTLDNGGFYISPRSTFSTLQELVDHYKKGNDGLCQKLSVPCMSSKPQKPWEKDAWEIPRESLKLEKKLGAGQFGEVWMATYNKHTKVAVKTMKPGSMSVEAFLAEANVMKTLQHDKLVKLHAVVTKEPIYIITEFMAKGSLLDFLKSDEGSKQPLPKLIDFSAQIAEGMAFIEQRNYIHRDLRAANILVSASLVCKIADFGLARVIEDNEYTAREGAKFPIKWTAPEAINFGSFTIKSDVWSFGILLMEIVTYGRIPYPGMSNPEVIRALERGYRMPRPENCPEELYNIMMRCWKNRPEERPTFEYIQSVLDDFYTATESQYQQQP

[10] = target: Cyclin-dependent kinase-like 4 (Homo sapiens) (UniProt Q5MAI5); experiment: Inhibition of human CDKL4 at 10 uM by radiometric method relative to control
[11] = target: NUAK family SNF1-like kinase 1 (Homo sapiens) (UniProt O60285); experiment: Inhibition of recombinant human ARK5 (2 to end residues) at 10 uM using KKKVSRSGLYRSPSMPENLNRPR as substrate measured after 40 mins in presence of [gamma33P]ATP by scintillation counting method relative to control
NUAK family SNF1-like kinase 1 (Homo sapiens), sequence (O60285 whole entry): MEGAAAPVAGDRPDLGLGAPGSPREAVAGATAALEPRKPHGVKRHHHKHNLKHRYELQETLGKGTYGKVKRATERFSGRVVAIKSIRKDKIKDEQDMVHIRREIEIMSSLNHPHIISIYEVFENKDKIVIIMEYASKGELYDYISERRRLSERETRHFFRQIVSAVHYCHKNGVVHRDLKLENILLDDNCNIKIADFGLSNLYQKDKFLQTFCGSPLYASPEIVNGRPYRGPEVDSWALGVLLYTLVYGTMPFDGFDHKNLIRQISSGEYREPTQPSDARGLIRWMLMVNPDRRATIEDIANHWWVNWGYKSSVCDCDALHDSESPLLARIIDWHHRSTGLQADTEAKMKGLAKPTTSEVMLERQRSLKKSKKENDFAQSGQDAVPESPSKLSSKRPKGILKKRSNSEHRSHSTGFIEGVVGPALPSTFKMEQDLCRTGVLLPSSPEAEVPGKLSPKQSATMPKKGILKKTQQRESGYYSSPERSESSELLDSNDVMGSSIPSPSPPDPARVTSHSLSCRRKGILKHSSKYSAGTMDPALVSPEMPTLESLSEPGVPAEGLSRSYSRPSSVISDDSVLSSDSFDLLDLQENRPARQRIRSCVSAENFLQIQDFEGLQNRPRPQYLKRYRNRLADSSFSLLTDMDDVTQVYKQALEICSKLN

[12] = GSH reactivity in PBS assessed as GSH adduct formation at 1 mM after 8 hrs by UPLC-MS analysis; format: physicochemical; conditions: buffer, 1000 µM
[13] = test system: RAF proto-oncogene serine/threonine-protein kinase (Homo sapiens), P04049 [Y340D,Y341D]; experiment: Inhibition of recombinant human c-RAF Y340D/Y341D mutant (360 to end residues) at 10 uM using inactive MEK1 as substrate measured after 40 mins in presence of [gamma33P]ATP by scintillation counting method relative to control
[14] = target: Inhibitor of nuclear factor kappa-B kinase subunit epsilon (Homo sapiens) (UniProt Q14164); experiment: Inhibition of full length recombinant human IKKepsilon at 10 uM using casein as substrate after 40 mins in presence of [gamma33P]ATP by scintillation counting method relative to control
Inhibitor of nuclear factor kappa-B kinase subunit epsilon (Homo sapiens), sequence (Q14164 whole entry): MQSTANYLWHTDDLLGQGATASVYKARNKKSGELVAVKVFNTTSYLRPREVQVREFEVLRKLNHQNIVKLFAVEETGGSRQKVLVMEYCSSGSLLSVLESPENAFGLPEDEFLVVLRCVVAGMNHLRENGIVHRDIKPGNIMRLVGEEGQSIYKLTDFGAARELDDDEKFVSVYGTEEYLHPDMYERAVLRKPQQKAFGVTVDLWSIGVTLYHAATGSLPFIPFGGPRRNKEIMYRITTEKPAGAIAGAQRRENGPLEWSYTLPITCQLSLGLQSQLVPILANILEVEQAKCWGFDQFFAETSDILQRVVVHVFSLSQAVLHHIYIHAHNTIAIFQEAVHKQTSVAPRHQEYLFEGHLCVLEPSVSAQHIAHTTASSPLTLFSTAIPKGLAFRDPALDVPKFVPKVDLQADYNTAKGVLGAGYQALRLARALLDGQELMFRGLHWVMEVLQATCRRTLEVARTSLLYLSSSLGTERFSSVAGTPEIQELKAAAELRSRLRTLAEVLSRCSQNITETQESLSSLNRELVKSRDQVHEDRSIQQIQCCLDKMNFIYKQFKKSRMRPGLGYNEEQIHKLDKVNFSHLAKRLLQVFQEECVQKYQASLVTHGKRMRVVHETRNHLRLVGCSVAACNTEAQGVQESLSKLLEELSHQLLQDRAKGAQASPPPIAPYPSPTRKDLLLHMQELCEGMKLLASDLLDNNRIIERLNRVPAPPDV

[15] = target: Serine/threonine-protein kinase D3 (Homo sapiens) (UniProt O94806); experiment: Inhibition of full-length recombinant human PKD3 at 10 uM using KKLRRTLSVA as substrate after 40 mins by in presence of [gamma33P]ATP by scintillation counting method relative to control
[16] = test system: Transcriptional enhancer factor TEF-3 (Homo sapiens), Q15561 [C367A]; experiment: Binding affinity to TEAD4-YBD C367A mutant (unknown origin) assessed as change in melting temperature by SYPRO-dye based thermal shift assay
Transcriptional enhancer factor TEF-3 (Homo sapiens), Q15561 [C367A], sequence (Q15561 whole entry C367A, the tested form may be a part): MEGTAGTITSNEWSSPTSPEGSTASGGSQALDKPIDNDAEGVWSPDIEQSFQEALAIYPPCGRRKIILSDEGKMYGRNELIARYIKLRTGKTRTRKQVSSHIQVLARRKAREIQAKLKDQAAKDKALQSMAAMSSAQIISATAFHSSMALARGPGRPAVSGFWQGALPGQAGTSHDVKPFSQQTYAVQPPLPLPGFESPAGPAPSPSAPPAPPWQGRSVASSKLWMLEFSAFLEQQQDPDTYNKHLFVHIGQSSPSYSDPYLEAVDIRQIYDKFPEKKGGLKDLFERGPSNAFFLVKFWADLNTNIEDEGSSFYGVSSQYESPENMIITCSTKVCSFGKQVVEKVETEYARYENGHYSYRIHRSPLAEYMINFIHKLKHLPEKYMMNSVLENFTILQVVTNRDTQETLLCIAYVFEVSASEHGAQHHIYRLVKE

[17] = target: Serine/threonine-protein kinase TAO2 (Homo sapiens) (UniProt Q9UL54); experiment: Inhibition of recombinant human TAO2 (1 to 320 residues) at 10 uM using myelin basic protein as substrate measured after 40 mins in presence of [gamm33P]ATP by scintillation counting method relative to control
[18] = target: T1, Transcriptional enhancer factor TEF-3 (Homo sapiens, UniProt Q15561); experiment: Binding affinity to N-terminal His6 tagged human TEAD4-YBD (217 to 434 residues) expressed in Escherichia coli C43 (DE3) cells assessed as covalent modification by measuring change in protein mass by mass spectral analysis
T1 sequence (Q15561 whole entry, the tested form may be a part): as the sequence (Q15561 whole entry C367A, the tested form may be a part) above, with A367C counted along it

[19] = target: T1, Transcriptional enhancer factor TEF-3; experiment: Binding affinity to N-terminal His6-tagged human TEAD4-YBD (217 to 434 residues) expressed in Escherichia coli C43 (DE3) cells assessed as change in melting temperature at 1:1 ratio by SYPRO-dye based thermal shift assay
[20] = organism: Homo sapiens; experiment: Inhibition of full-length recombinant human PKA at 10 uM using LRRASLG as substrate after 40 mins by in presence of [gamma33P]ATP by scintillation counting method relative to control
[21] = target: Ribosomal protein S6 kinase alpha-3 (Homo sapiens) (UniProt P51812); experiment: Inhibition of full length recombinant human Rsk2 (2 to end residues) at 10 uM using KKKNRTLSVA as substrate after 40 mins in presence of [gamma33P]ATP by scintillation counting method relative to control
Ribosomal protein S6 kinase alpha-3 (Homo sapiens), sequence (P51812 whole entry): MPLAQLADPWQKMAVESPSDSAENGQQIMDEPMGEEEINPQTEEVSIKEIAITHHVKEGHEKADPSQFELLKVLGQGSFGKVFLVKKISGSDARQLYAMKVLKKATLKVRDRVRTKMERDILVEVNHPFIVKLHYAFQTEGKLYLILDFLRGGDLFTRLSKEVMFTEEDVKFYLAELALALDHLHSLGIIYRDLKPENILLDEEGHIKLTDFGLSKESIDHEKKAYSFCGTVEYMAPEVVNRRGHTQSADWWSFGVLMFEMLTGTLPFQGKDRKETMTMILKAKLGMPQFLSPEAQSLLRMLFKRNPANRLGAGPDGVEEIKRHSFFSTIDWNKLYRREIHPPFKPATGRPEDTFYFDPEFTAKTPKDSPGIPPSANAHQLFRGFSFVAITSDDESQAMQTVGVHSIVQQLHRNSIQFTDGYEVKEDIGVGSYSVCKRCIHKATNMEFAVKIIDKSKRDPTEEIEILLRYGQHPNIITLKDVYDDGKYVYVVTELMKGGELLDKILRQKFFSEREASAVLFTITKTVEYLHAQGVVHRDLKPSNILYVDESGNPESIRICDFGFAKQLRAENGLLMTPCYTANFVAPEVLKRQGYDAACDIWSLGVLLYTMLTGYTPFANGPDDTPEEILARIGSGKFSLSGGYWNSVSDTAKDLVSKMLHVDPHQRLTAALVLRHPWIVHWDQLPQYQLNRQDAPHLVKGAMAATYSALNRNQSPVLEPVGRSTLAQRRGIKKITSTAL

[22] = target: Inhibitor of nuclear factor kappa-B kinase subunit alpha (Homo sapiens) (UniProt O15111); experiment: Inhibition of full length recombinant human IKKalpha at 10 uM after 40 mins in presence of [gamma33P]ATP by scintillation counting method relative to control
[23] = target: Death-associated protein kinase 2 (Homo sapiens) (UniProt Q9UIK4); experiment: Inhibition of full-length recombinant human DAPK2 at 10 uM using calmodulin as substrate after 40 mins by in presence of [gamma33P]ATP by scintillation counting method relative to control
[24] = target: Serine/threonine-protein kinase 26 (Homo sapiens) (UniProt Q9P289); experiment: Inhibition of recombinant human MST4 (4 to 304 residues) at 10 uM using RLGRDKYKTLRQIRQ as substrate measured after 40 mins in presence of [gamma33P]ATP by scintillation counting method relative to control
[25] = target: T1, Transcriptional enhancer factor TEF-3; experiment: Binding affinity to TEAD4 in human HCT116 cells assessed as increase in soluble form of TEAD4 level at 50 uM preincubated for 4 hrs followed by heating at 51.6 to 64.4 degC for 3 mins by immunoblot-based […]; format: cell-based

C=CS(=O)(=O)Nc1ccc(Cc2ccc3ccccc3c2)cc1
inhibition [1]: 9%
Activity [2]: inactive
inhibition [3]: 4%
inhibition [4]: 3%
inhibition [5]: -3%
inhibition [6]: 10%
inhibition [7]: 10%
inhibition [8]: 8%
inhibition [9]: 3%
inhibition [10]: -6%
inhibition [11]: 10%
Activity [12]: Not Active
inhibition [13]: -8%
inhibition [14]: 5%
inhibition [15]: 22%
ΔTm [16]: 1.2 °C
inhibition [17]: 22%
Activity [18]: Active
ΔTm [19]: 7 to 7.2 °C
inhibition [20]: 1%
inhibition [21]: -3%
inhibition [22]: -2%
inhibition [23]: -7%
inhibition [24]: 1%
Activity [25]: Active

From ChEMBL document CHEMBL4376829, “Discovery and biological evaluation of vinylsulfonamide derivatives as highly potent, covalent TEAD autopalmitoylation inhibitors” (Eur J Med Chem, 2019)
